# Where two headings read alike, the source gives them in different places.
# Assays:
# [1] = target: CDK6 (Homo sapiens, UniProt Q00534); assay: CDK6 biochemical assay (33P-ATP filter-binding kinase assay)
# Protocol: (§1) Cyclin Dl was added to freshly prepared reaction buffer [20 mM Hepes (pH 7.5), 10 mM MgCl2, 1 mM EGTA, 0.02% Brij 35, 0.02 mg/mL BSA, 0.1 mM Na3VO4, 2 mM DTT, 1% DMSO]. CDK4 or CDK6 was delivered to the substrate solution and gently mixed. […] The compounds, diluted in DMSO, were added into the kinase reaction mixture by Acoustic technology (Echo550; nanoliter range) and incubated for 20 minutes at room temperature. 33P-ATP (1 μM) was added to the reaction mixture to initiate the reaction. The kinase reaction was incubated for 2 hours at room temperature. The reactions were spotted onto P81 ion exchange paper and the kinase activity detected by filter-binding method. Curves were fitted to a nonlinear regression curve using a four parameter logistic equation (GraphPad Prism).
# [2] = test system: MCF7 human tumor cells; assay: MCF7 cell assay (Cell Titer-Glo, inhibition of cell growth); assay type: cell-based; conditions: 72 hours of culture
# Protocol: The MCF7 human tumor cells were seeded in a clear polystyrene 96-well microculture plate (Corning® Costar® 96-well flat bottom plate, Cat. #3997) in a total volume of 90 μL/well. After 24 hours of incubation in a humidified incubator at 37° C. with 5% CO2 and 95% air, 10 μL of 10×, serially diluted 1 in growth medium was added to each well in duplicate (10 point dose response). After 72 hours of culture in a humidified incubator at 37° C., in an atmosphere of 5% CO2 and 95% air, the plated cells and Cell Titer-Glo® (Promega G7571) reagents were brought to room temperature to equilibrate for 30 minutes. 100 μL of Cell Titer-Glo® reagent was added to each well. The plate was shaken for two minutes and then left to equilibrate for ten minutes. The medium/Cell Titer Glo® reagent was transferred to a white polystyrene 96-well microculture plate (Corning® Costar® 96-well flat bottom plate, Cat. #3917) before reading luminescence on the Tecan GENios microplate reader. Percent inhibition of cell growth was calculated relative to untreated control wells. All tests were performed in duplicate at each concentration level. The IC50 value for the test agents was estimated using Prism 6.05 by curve-fitting the data using the following four parameter-logistic equation: […]
# [3] = target: CDK4 (Homo sapiens, UniProt P11802); assay: CDK4 biochemical assay (33P-ATP filter-binding kinase assay)
# Protocol: as §1
# Chain of CDK4 (P11802 whole entry): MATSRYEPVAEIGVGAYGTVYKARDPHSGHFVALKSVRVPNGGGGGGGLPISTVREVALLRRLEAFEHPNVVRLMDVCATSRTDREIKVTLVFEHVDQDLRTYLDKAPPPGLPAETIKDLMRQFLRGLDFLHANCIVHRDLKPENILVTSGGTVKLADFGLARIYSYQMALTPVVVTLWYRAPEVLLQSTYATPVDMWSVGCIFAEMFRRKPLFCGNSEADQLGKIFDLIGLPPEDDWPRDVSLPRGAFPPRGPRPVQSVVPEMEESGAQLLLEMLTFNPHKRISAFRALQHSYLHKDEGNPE
# Chain of CDK4 (P24385 whole entry partner): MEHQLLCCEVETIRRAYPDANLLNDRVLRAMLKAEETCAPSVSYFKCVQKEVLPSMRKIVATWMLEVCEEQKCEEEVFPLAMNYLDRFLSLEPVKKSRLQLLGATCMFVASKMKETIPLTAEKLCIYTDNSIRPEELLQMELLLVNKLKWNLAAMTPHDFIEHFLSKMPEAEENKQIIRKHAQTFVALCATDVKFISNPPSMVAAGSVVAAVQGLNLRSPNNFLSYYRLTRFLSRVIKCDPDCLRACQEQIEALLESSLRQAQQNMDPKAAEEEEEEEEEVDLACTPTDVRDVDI
# Chain of CDK6 (Q00534 whole entry): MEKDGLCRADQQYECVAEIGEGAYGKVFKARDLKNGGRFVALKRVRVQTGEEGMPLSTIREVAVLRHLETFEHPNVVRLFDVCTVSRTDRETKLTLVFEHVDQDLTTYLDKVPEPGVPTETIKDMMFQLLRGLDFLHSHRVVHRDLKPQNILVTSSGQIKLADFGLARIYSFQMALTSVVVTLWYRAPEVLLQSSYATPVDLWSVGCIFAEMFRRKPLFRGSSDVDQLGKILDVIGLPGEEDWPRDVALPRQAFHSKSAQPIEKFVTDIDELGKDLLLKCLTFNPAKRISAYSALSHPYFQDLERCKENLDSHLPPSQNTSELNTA
# Chain of CDK6 (P24385 whole entry partner): as the sequence (P24385 whole entry partner) above
Compound,"IC50 ([1]; Cyclin D1, 1 μM 33P-ATP, 2 hours at room temperature, read-out: IC50 in CDK6 assay)",IC50 [2],"IC50 ([3]; Cyclin D1, 1 μM 33P-ATP, 2 hours at room temperature, read-out: IC50 in CDK4 assay)","IC50 ([1]; assay conditions described herein, read-out: IC50 CDK6 biochemical assay)","IC50 ([3]; assay conditions described herein, read-out: IC50 CDK4 biochemical assay)"
"CCN1CCN(Cc2ccc(Nc3ncc(F)c(-c4ccc5nn(C)c(C(C)C)c5c4)n3)nc2)CC1 [Compound 1, N-(5-((4-ethylpiperazin-1-yl)methyl)pyridin-2-yl)-5-fluoro-4-(3-isopropyl-2-methyl-2H-indazol-5-yl)pyrimidin-2-amine]",< 1 nM,< 2 µM,< 1 nM,–,–
CN(C)C(=O)c1cc2cnc(Nc3ccc(N4CCNCC4)cn3)nc2n1C1CCCC1 [Compound 32],–,10 µM,–,–,–
CCN1CCN(Cc2ccc(Nc3ncc(F)c(-c4cc(F)c5nc(C)n(C(C)C)c5c4)n3)nc2)CC1 [Compound 33],–,< 2 µM,–,–,–
CC(=O)c1c(C)c2nc(Nc3ccc(N4CCNCC4)cn3)ncc2n(C2CCCC2)c1=O [Compound 34],–,10 µM,–,< 2 nM,< 1 nM
